This assay has as its target T1, Human Recombinant (E. coli) PPARgamma (Homo sapiens, UniProt P37231).
T1 construct: host or cells: E. coli
T1 sequence (P37231 1-505): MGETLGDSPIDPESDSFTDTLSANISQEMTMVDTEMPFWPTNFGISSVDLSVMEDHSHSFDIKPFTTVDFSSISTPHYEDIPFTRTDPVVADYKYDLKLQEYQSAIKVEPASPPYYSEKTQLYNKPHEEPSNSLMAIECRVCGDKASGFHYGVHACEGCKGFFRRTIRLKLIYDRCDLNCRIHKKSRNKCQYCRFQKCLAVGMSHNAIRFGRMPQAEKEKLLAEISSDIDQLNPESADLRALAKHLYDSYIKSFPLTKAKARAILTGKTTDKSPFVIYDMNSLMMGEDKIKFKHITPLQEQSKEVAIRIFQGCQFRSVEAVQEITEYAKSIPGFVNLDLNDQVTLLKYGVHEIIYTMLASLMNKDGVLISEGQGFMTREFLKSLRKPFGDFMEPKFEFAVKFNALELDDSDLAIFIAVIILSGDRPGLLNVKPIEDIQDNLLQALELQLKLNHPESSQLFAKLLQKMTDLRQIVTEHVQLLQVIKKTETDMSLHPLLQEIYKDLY
Kind of assay: PPAR gamma binding assay. Conditions: at 30 μM. The method, then: Incubation: 120 min. at 4° C.
The results are expressed as a percent of control specific binding ((measured specific binding/control specific binding)×100) obtained in the presence of the test compounds. The IC50 values (concentration causing a half-maximal inhibition of control specific binding) and Hill coefficients (nil) were determined by non-linear regression analysis of the competition curves generated with mean replicate values using Hill equation curve fitting (Y=D+[(A−D)/(1+(C/C50)nH)], where Y=specific binding, D=minimum specific binding, A=maximum specific binding, C=compound concentration, C50=IC50, and nH=slope factor). This analysis was performed using a software developed at Cerep (Hill software) and validated by comparison with data generated by the commercial software SigmaPlot 4.0 for Windows® (© 1997 by SPSS Inc.). The inhibition constants (Ki) were calculated using the Cheng Prusoff equation (Ki=IC50/(1+(L/KD)), where L=concentration of radioligand in the assay, and KD=affinity of the radioligand for the receptor).

Regarding `O=C(O)CC/C=C\C[C@H]1CO[C@@H](c2ccccc2Cl)O[C@H]1c1ccccc1O` [Compound B, (Z)-6-((2R,4R,5S)-2-(2-chlorophenyl)-4-(2-hydroxyphenyl)-1,3-dioxan-5-yl)hex-4-enoic acid, reference compound], the PPARγ binding entry is “no binding”.

(Values after patent publication US20130197030A1, “Substituted 1,3-Dioxanes and There Uses” (Evolva Sa, priority 2007, published 2013).)
